Experimental data published in patent publication US8952024B2, “Herbicidal pyrimidone derivatives” (E I du Pont de Nemours and Company, priority 2009, dated 2015).

How the values were obtained:
Format in all cases: in vivo
[1] = system: blackgrass (Alopecurus myosuroides); assay: Test B pre-/postemergence plant response
Summary of the method: (§1)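 Compound in solvent + surfactant applied pre-em (loam/sand) or post-em (plants 2–18 cm, peat medium); greenhouse hold 13–15 days; visual 0–100 control score.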

[2] = system: yellow nutsedge (Cyperus esculentus); assay: Test B pre-/postemergence plant response
Summary of the method: as §1

[3] = system: lambsquarters (Chenopodium album); assay: Test B pre-/postemergence plant response
Summary of the method: as §1

[4] = system: Surinam grass (Brachiaria decumbens); assay: Test B pre-/postemergence plant response
Summary of the method: as §1

[5] = system: johnsongrass (Sorghum halepense); assay: Test B pre-/postemergence plant response
Summary of the method: as §1

[6] = system: corn (Zea mays); assay: Test B pre-/postemergence plant response
Summary of the method: as §1

[7] = system: woolly cupgrass (Eriochloa villosa); assay: Test B pre-/postemergence plant response
Summary of the method: as §1

[8] = system: Italian ryegrass (Lolium multiflorum); assay: Test B pre-/postemergence plant response
Summary of the method: as §1

[9] = system: ragweed (common ragweed, Ambrosia elatior); assay: Test B pre-/postemergence plant response
Summary of the method: as §1

[10] = system: velvetleaf (Abutilon theophrasti); assay: Test B pre-/postemergence plant response
Summary of the method: as §1

[11] = system: soybean (Glycine max); assay: Test B pre-/postemergence plant response
Summary of the method: as §1

[12] = system: bermudagrass (Cynodon dactylon); assay: Test B pre-/postemergence plant response
Summary of the method: as §1

[13] = system: large crabgrass (Digitaria sanguinalis); assay: Test B pre-/postemergence plant response
Summary of the method: as §1

[14] = system: wild oat (Avena fatua); assay: Test B pre-/postemergence plant response
Summary of the method: as §1

[15] = system: canarygrass (Phalaris minor); assay: Test B postemergence plant response
Summary of the method: (§2)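 Visual ratings from 0 (no effect) to 100 (complete control), made against controls 13–15 days after treatment, kept in a greenhouse. Compounds were applied postemergence to potted plants at the 1- to 4-leaf stage (2–18 cm).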

[16] = system: chickweed (Stellaria media); assay: Test B postemergence plant response
Summary of the method: as §2

[17] = system: windgrass (Apera spica-venti); assay: Test B postemergence plant response
Summary of the method: as §2

[18] = system: winter barley (Hordeum vulgare); assay: Test B postemergence plant response
Summary of the method: as §2

[19] = 31 g ai/ha, postemergence, scale 0 to 100, 0 is no effect, 100 is complete control
[20] = 62 g ai/ha, postemergence, 0 is no effect, 100 is complete control, 13 to 15 days
[21] = Postemergence, 125 g ai/ha, visual rating after 13 to 15 days, scale 0 (no effect) to 100 (complete control)
[22] = Postemergence, 250 g ai/ha, scale 0 to 100 (0 no effect, 100 complete control)

Structure (SMILES): CCCc1ncc(C(=O)C2=C(O)CCCC2=O)c(=O)n1-c1cccc(C)c1 [Compound 79]
- Plant response rating, Blackgrass [1, 19]: 5
- Blackgrass plant response rating (0 to 100 scale) [1, 20]: 15
- Plant response rating, Blackgrass [1, 21]: 30
- Plant response rating, Blackgrass [1, 22]: 45
- Plant response rating, Nutsedge, Yellow [2, 19]: 25
- Nutsedge, Yellow plant response rating (0 to 100 scale) [2, 20]: 60
- Plant response rating, Nutsedge, Yellow [2, 21]: 70
- Plant response rating, Nutsedge, Yellow [2, 22]: 80
- Plant response rating, Lambsquarters [3, 19]: 95
- Lambsquarters plant response rating (0 to 100 scale) [3, 20]: 98
- Plant response rating, Lambsquarters [3, 21]: 100
- Plant response rating, Lambsquarters [3, 22]: 100
- Plant response rating, Surinam Grass [4, 19]: 20
- Surinam Grass plant response rating (0 to 100 scale) [4, 20]: 45
- Plant response rating, Surinam Grass [4, 21]: 75
- Plant response rating, Surinam Grass [4, 22]: 90
- Plant response rating, Johnsongrass [5, 19]: 0
- Johnsongrass plant response rating (0 to 100 scale) [5, 20]: 65
- Plant response rating, Johnsongrass [5, 21]: 70
- Plant response rating, Johnsongrass [5, 22]: 75
- Plant response rating, Corn [6, 19]: 5
- Corn plant response rating (0 to 100 scale) [6, 20]: 45
- Plant response rating, Corn [6, 21]: 60
- Plant response rating, Corn [6, 22]: 75
- Plant response rating, Cupgrass, Woolly [7, 19]: 10
- Cupgrass, Woolly plant response rating (0 to 100 scale) [7, 20]: 40
- Plant response rating, Cupgrass, Woolly [7, 21]: 65
- Plant response rating, Cupgrass, Woolly [7, 22]: 75
- Plant response rating, Ryegrass, Italian [8, 19]: 20
- Ryegrass, Italian plant response rating (0 to 100 scale) [8, 20]: 20
- Plant response rating, Ryegrass, Italian [8, 21]: 50
- Plant response rating, Ryegrass, Italian [8, 22]: 55
- Plant response rating, Ragweed [9, 19]: 80
- Ragweed plant response rating (0 to 100 scale) [9, 20]: 85
- Plant response rating, Ragweed [9, 21]: 95
- Plant response rating, Ragweed [9, 22]: 98
- Plant response rating, Velvetleaf [10, 19]: 95
- Velvetleaf plant response rating (0 to 100 scale) [10, 20]: 98
- Plant response rating, Velvetleaf [10, 21]: 98
- Plant response rating, Velvetleaf [10, 22]: 100
- Plant response rating, Soybean [11, 19]: 75
- Soybean plant response rating (0 to 100 scale) [11, 20]: 90
- Plant response rating, Soybean [11, 21]: 95
- Plant response rating, Soybean [11, 22]: 98
- Plant response rating, Bermudagrass [12, 19]: 80
- Bermudagrass plant response rating (0 to 100 scale) [12, 20]: 80
- Plant response rating, Bermudagrass [12, 21]: 85
- Plant response rating, Bermudagrass [12, 22]: 85
- Plant response rating, Crabgrass, Large [13, 19]: 80
- Crabgrass, Large plant response rating (0 to 100 scale) [13, 20]: 85
- Plant response rating, Crabgrass, Large [13, 21]: 90
- Plant response rating, Crabgrass, Large [13, 22]: 95
- Plant response rating, Oat, Wild [14, 19]: 40
- Oat, Wild plant response rating (0 to 100 scale) [14, 20]: 45
- Plant response rating, Oat, Wild [14, 21]: 60
- Plant response rating, Oat, Wild [14, 22]: 75
- Plant response rating, Canarygrass [15, 19]: 15
- Canarygrass plant response rating (0 to 100 scale) [15, 20]: 30
- Plant response rating, Canarygrass [15, 21]: 35
- Plant response rating, Canarygrass [15, 22]: 50
- Plant response rating, Chickweed [16, 19]: 80
- Chickweed plant response rating (0 to 100 scale) [16, 20]: 95
- Plant response rating, Chickweed [16, 21]: 95
- Plant response rating, Chickweed [16, 22]: 98
- Plant response rating, Windgrass [17, 19]: 50
- Windgrass plant response rating (0 to 100 scale) [17, 20]: 65
- Plant response rating, Windgrass [17, 21]: 65
- Plant response rating, Windgrass [17, 22]: 90
- Plant response rating, Barley [18, 19]: 5
- Barley plant response rating (0 to 100 scale) [18, 20]: 30
- Plant response rating, Barley [18, 21]: 35
- Plant response rating, Barley [18, 22]: 55
